Test results as given in patent US9914730B2, “Azaquinazoline inhibitors of Atypical protein Kinase C” (Ignyta, Inc., priority 2012, dated 2018).

Molecular target: T1, full-length human PKCι (Homo sapiens, UniProt P41743)
T1 construct: Recombinant, full-length human PKCι expressed in Sf21 insect cells is also commercially available; purchased; host or cells: Sf21 insect cells
T1 sequence (P41743 1-596): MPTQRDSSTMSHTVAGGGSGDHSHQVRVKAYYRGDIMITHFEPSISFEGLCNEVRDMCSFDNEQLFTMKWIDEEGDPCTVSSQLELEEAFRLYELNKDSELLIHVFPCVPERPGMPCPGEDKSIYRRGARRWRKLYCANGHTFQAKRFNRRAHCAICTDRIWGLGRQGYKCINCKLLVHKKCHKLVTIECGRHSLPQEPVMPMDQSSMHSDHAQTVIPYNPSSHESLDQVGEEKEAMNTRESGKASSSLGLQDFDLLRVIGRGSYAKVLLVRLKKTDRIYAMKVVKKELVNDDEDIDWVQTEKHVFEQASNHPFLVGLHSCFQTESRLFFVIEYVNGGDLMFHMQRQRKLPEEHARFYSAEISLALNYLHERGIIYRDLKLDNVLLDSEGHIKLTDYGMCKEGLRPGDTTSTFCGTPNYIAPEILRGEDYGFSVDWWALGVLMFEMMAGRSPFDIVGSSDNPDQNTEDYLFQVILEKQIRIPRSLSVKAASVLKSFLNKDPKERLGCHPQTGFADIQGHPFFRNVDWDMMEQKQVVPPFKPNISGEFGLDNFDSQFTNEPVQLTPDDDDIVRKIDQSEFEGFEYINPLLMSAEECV
Assay: PKCι IC50 IMAP assay, full-length PKCι at 150 μM ATP
Format: biochemical
Conditions: read-out: IC50 in IMAP assay against full length PKCi at 150 μM ATP
Procedure, shortened: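 Recombinant full-length human PKCι (Sf21-expressed, typically 15 pM) phosphorylated 100 nM 5FAM-labelled PKCε pseudosubstrate-derived peptide with 150 μM ATP (5× KM^APP) in 18 mM tris-HCl pH7.5, 9 mM MgCl2, EGTA, DTT, 4% DMSO. After 60 min at room temperature, IMAP binding reagent was added for 2 h and fluorescence polarisation read.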

SMILES	IC50
Fc1cccc(F)c1Nc1cc(-c2nc(N3CCNCC3)c3c(C4CC4)cnc(Cl)c3n2)ccn1 [Example 2100, [4-(8-Chloro-5-cyclopropyl-4-piperazin-1-yl-pyrido[3,4-d]pyrimidin-2-yl)-pyridin-2-yl]-(2,6-difluoro-phenyl)-amine]	< 100 nM
c1cc(-c2nc(N3CCNCC3)c3c(C4CCC4)cncc3n2)c2c3c([nH]c2n1)CCCC3 [Example 2199, 4-(5-Cyclobutyl-4-piperazin-1-yl-pyrido[3,4-d]pyrimidin-2-yl)-6,7,8,9-tetrahydro-5H-pyrido[2,3-b]indole]	100 to 1000 nM
COc1cncc2nc(-c3ccnc(Nc4cccc(F)n4)c3)nc(N3CCC(O)CC3)c12 [Example 468, 1-{2-[2-(6-Fluoro-pyridin-2-ylamino)-pyridin-4-yl]-5-methoxy-pyrido[3,4-d]pyrimidin-4-yl}-piperidin-4-ol]	100 to 1000 nM
Fc1cnc2[nH]ccc2c1-c1nc(N2CCNCC2)c2c(C3CC3)cncc2n1 [Example 1226, 5-Cyclopropyl-2-(5-fluoro-1H-pyrrolo[2,3-b]pyridin-4-yl)-4-piperazin-1-yl-pyrido[3,4-d]pyrimidine]	< 100 nM
Fc1cccc(F)c1Nc1cc(-c2nc(N3CCNCC3)c3c(C4CC4)cnc(C4CC4)c3n2)ccn1 [Example 2189, [4-(5,8-Dicyclopropyl-4-piperazin-1-yl-pyrido[3,4-d]pyrimidin-2-yl)-pyridin-2 yl]-(2,6-difluoro-phenyl)-amine]	100 to 1000 nM
CCN1CCP(=O)(c2ccc(Nc3cc(-c4nc(N5CCNCC5)c5c(C6CC6)cncc5n4)ccn3)c(OC)c2)CC1 [Example 625, [4-(5-Cyclopropyl-4-piperazin-1-yl-pyrido[3,4-d]pyrimidin-2-yl)-pyridin-2-yl]-[4-(1-ethyl-4-oxo-4λ^5-[1,4]azaphos-phinan-4-yl)-2-methoxy-phenyl]-amine]	100 to 1000 nM
COc1cncc2nc(-c3ccncc3)nc(N3CCN[C@@H](C(F)c4ccccc4)C3)c12 (stereo partly drawn) [Example 76, (3R)-3-[fluoro(phenyl)-methyl]-1-[5-methoxy-2-(pyridin-4-yl)-pyrido[3,4-d]-pyrimidin-4-yl]-piperazine]	< 100 nM
N[C@H](CNc1nc(-c2ccncc2)nc2c(-c3cccc(-c4ccn[nH]4)c3)nccc12)Cc1ccccc1 [Example 120, N-[(2S)-2-amino-3-phenylpropyl]-8-[3-(1H-pyrazol-5-yl)phenyl]-2-(pyridin-4-yl)pyrido[3,4-d]pyrimidin-4-amine]	1000 to 10000 nM
CN1CCC(N(C)c2nc(-c3ccnc(Nc4c(F)cccc4F)c3)nc3cncc(C4CC4)c23)CC1 [Example 2083, {5-Cyclopropyl-2-[2-(2,6-difluoro-phenylamino)-pyridin-4-yl]-pyrido[3,4-d]pyrimidin-4-yl}-methyl-(1-methyl-piperidin-4-yl)-amine]	< 100 nM
c1cnc(Nc2cc(-c3nc(N4CCNCC4)c4c(C5CC5)cncc4n3)ccn2)cn1 [Example 507]	< 100 nM
CC(=O)N[C@H](CNc1nc(-c2ccncc2)nc2cnccc12)Cc1ccccc1 [Example 79, N—[(S)-1-Benzyl-2-(2-pyridin-4-yl-pyrido[3,4-d]pyrimidin-4-ylamino)-ethyl]-acetamide]	10000 to 40000 nM
CC1(C)C(=O)Nc2nccc(-c3nc(N4CCNCC4)c4c(C5CC5)cncc4n3)c21 [Example 2211, 4-(5-Cyclopropyl-4-piperazin-1-yl-pyrido[3,4-d]pyrimidin-2-yl)-3,3-dimethyl-1,3-dihydro-pyrrolo[2,3-b]pyridin-2-one]	1000 to 10000 nM
Cc1ccc(F)cc1Nc1cc(-c2nc(N3CCNCC3)c3c(C4CC4)cncc3n2)ccn1 [Example 523, [4-(5-Cyclopropyl-4-piperazin-1-yl-pyrido[3,4-d]pyrimidin-2-yl)-pyridin-2-yl]-(5-fluoro-2-methyl-phenyl)-amine]	< 100 nM
COc1cncc2nc(-c3ccnc(Nc4ccccc4)c3)nc(N3CCN[C@@H](CC#N)C3)c12 [Example 232, {(S)-4-[5-Methoxy-2-(2-phenylamino-pyridin-4-yl)-pyrido[3,4-d]pyrimidin-4-yl]-piperazin-2-yl}-acetonitrile]	100 to 1000 nM
Cc1ccc(Nc2cc(-c3nc(N[C@@H]4CCNC4)c4ccncc4n3)ccn2)nc1 [Example 345, {2-[2-(5-Methyl-pyridin-2-ylamino)-pyridin-4-yl]-pyrido[3,4-d]pyrimidin-4-yl}-(R)-pyrrolidin-3-yl-amine]	< 100 nM
NC(=O)Cc1ccc(Nc2cc(-c3nc(N[C@@H]4CCNC4)c4ccncc4n3)ccn2)cc1 [Example 313, 2-(4-{4-[4-((R)-Pyrrolidin-3-ylamino)-pyrido[3,4-d]pyrimidin-2-yl]-pyridin-2-ylamino}-phenyl)-acetamide]	< 100 nM
Fc1cnc(Nc2ccccc2)cc1-c1nc(N2CCNCC2)c2c(C3CC3)cncc2n1 [Example 654, [4-(5-Cyclopropyl-4-piperazin-1-yl-pyrido[3,4-d]pyrimidin-2-yl)-5-fluoro-pyridin-2-yl]-phenyl-amine]	< 100 nM
Fc1cccc(F)c1Nc1cc(-c2nc(NC3CCNC3)c3c(C4CC4)cncc3n2)ccn1 (stereo not drawn) [Example 837, {5-Cyclopropyl-2-[2-(2,6-difluoro-phenylamino)-pyridin-4-yl]-pyrido[3,4-d]pyrimidin-4-yl}-pyrrolidin-3-yl-amine]	< 100 nM
COc1cncc2nc(-c3ccnc(NC(=O)[C@H](C)c4ccccc4)c3)nc(N[C@@H]3CCNC3)c12 [Example 406, (R)-N-{4-[5-Methoxy-4-((R)-pyrrolidin-3-ylamino)-pyrido[3,4-d]pyrimidin-2-yl]-pyridin-2-yl}-2-phenyl-propionamide]	100 to 1000 nM
Fc1cnc(Nc2cc(-c3nc(N4CCNCC4)c4c(C5CC5)cnc(Cl)c4n3)ccn2)c(F)c1 [Example 2148, [4-(8-Chloro-5-cyclopropyl-4-piperazin-1-yl-pyrido[3,4-d]pyrimidin-2-yl)-pyridin-2-yl]-(3,5-difluoro-pyridin-2-yl)-amine]	< 100 nM
Fc1cnccc1-c1nc(N[C@@H]2CCNC2)c2ccncc2n1 [Example 8, (3R)-N-[2-(3-fluoropyridin-4-yl)-pyrido[3,4-d]-pyrimidin-4-yl]-pyrrolidin-3-amine]	100 to 1000 nM
FC(F)(F)c1ccnc(Nc2cc(-c3nc(N[C@@H]4CCNC4)c4ccncc4n3)ccn2)c1 [Example 350, (R)-Pyrrolidin-3-yl-{2-[2-(4-trifluoromethyl-pyridin-2-ylamino)-pyridin-4-yl]-pyrido[3,4-d]pyrimidin-4-yl}-amine]	< 100 nM
Cc1ccc(C)c(Nc2cc(-c3nc(N4CCNCC4)c4c(C5CC5)cncc4n3)ccn2)c1 [Example 505, [4-(5-Cyclopropyl-4-piperazin-1-yl-pyrido[3,4-d]pyrimidin-2-yl)-pyridin-2-yl]-(2,5-dimethyl-phenyl)-amine]	< 100 nM
Fc1ccc(C2(c3cc4c(-c5nc(N6CCNCC6)c6c(C7CC7)cncc6n5)ccnc4[nH]3)CC2)cc1 [Example 2048, 5-Cyclopropyl-2-{2-[1-(4-fluoro-phenyl)-cyclopropyl]-1H-pyrrolo[2,3-b]pyridin-4-yl}-4-piperazin-1-yl-pyrido[3,4-d]pyrimidine]	< 100 nM
N[C@H](CNc1nc(-c2ccncc2)nc2cnccc12)Cc1ccccc1 [Example 6, N-[(2S)-2-amino-3-phenylpropyl]-2-(pyridin-4-yl)pyrido[3,4-d]-pyrimidin-4-amine]	< 100 nM
[2H]C([2H])([2H])c1cc2c(-c3nc(N4CCNCC4)c4c(C5CC5)cncc4n3)ccnc2[nH]1 [Example 1228, 5-Cyclopropyl-4-piperazin-1-yl-2-(2-triduteriomethyl-1H-pyrrolo[2,3-b]pyridin-4-yl)-pyrido[3,4-d]pyrimidine]	< 100 nM
COc1cncc2nc(-c3ccncc3)nc(N3CCC(N)(C(=O)N[C@@H](CCO)c4ccc(Cl)cc4)CC3)c12 [Example 154, 4-Amino-1-(5-methoxy-2-pyridin-4-yl-pyrido[3,4-d]pyrimidin-4-yl)-piperidine-4-carboxylic acid [(S)-1-(4-chloro-phenyl)-3-hydroxy-propyl]-amide]	100 to 1000 nM
Nc1cc(-c2nc(N3CCNCC3)c3c(C4CC4)cncc3n2)ccn1 [Example 582, 4-(5-Cyclopropyl-4-piperazin-1-yl-pyrido[3,4-d]pyrimidin-2-yl)-pyridin-2-ylamine]	< 100 nM
CN1CCN(c2cccc(Nc3cc(-c4nc(N5CCC(O)C(O)C5)c5c(C6CC6)cncc5n4)ccn3)c2)CC1 (single isomer, unassigned) [Example 752, (3R,4S or 3R,4S)-1-(5-Cyclopropyl-2-{2-[3-(4-methyl-piperazin-1-yl)-phenylamino]-pyridin-4-yl}-pyrido[3,4-d]pyrimidin-4-yl)-piperidine-3,4-diol]	< 100 nM
COc1ncccc1Nc1cc(-c2nc(N3CCNCC3)c3c(C4CC4)cncc3n2)ccn1 [Example 513, [4-(5-Cyclopropyl-4-piperazin-1-yl-pyrido[3,4-d]pyrimidin-2-yl)-pyridin-2-yl]-(2-methoxy-pyridin-3-yl)-amine]	< 100 nM
